Structures are written as SMILES.

A word on the IC50: it is the concentration that gives 50% inhibition.

One experiment has as its system PC-3 prostate cancer cells. Briefly: EDR anti-proliferation assay (3H-thymidine incorporation, soft agar), PC-3. The experiment is classed as cell-based. The conditions noted are these: PC-3 cell line; five days incubation; 3H-TdR incorporation; read-out: PC-3 or MCF-7* IC50. Here is the method: (§1) Compounds prepared according to Examples 1-7 were tested for anti-proliferation against PC-3 prostate or MCF-7 breast cancer cells. The specific compounds tested include N-methyl-2-(2-methoxyethoxy)acetamidomethyl butyrate; N-methylbutyramidomethyl cinnamate; N-methylcinnamamidomethyl butyrate; cinnamoyloxymethyl thiobutyrate; butyroyloxymethyl thiocinnamate; bis(thiobutyl)methane; 3-oxohexyl cinnamate; and propionoyloxymethyl propionate. Butyric acid and trichostatin, a potent HDAC inhibitor, were used as reference compounds. Both compounds were purchased from Sigma-Aldrich, Milwaukee, Wis.
The PC-3 cell line was maintained in RPMI supplemented with 10% fetal calf serum and antibiotics. The EDR assay was performed as described by Kern and Weisenthal in “Highly Specific Prediction of Antineoplastic Drug Resistance With An In Vitro Assay Using Suprapharmacologic Drug Exposures,” J. Nat. Cancer Inst., 82:582-588 (1990); and Fruehauf and Bosanquet, “In vitro Determination of Drug Response: A Discussion of Clinical Applications,” PPO Updates 7(12):1-16 (1993). Cells were suspended in 0.12% soft agar in complete medium and plated (2,000 cells per well, as determined by preliminary experiments) in different drug concentrations onto a 0.4% agarose underlayer in 24-well plates. Plating cells on agarose underlayers supports the proliferation only of the transformed cells, ensuring that the growth signal stems from the malignant component of the tumor.
All compounds were dissolved in DMSO to 200× stock solutions. Stock solutions were diluted to 20× working solutions using the tissue culture medium, serially diluted and added to the 24-well plates. The concentration range was 0.001 μM to 0.3 μM for trichostatin and 10 μM-1,000 μM for the other compounds. No significant changes in pH of the culture medium were observed under the above conditions. Diluent control wells contained PC3 cells treated with DMSO, at the dilutions used for appropriate drug treatment. All experimental points were represented by two separate wells (duplicates). Positive controls were determined using at least two wells treated with an extremely high dose of cisplatin, an anti-cancer agent. Four wells containing tumor cells that were not treated with drugs served as negative controls in each experiment.
Cells were incubated with drugs under standard culture conditions for five days. Cultures were pulsed with tritiated thymidine (^3H-TdR, New Life Science Products, Boston, Mass.) at 5 μCi per well for the last 48 hours of the culture period.
(§2) Cell culture plates were then heated to 90° C. to liquefy the agarose, and cells were harvested onto glass fiber filters, which were then placed into counting vials containing liquid scintillation fluid. The radioactivity trapped on the filters was counted with a Beckman scintillation counter. The fraction of surviving cells was determined by comparing ^3H-TdR incorporation in treated (experimental points) and untreated (negative control) wells. All drug concentrations are presented as μM, allowing for normalization of drug response curves and direct comparison of the effects of the drugs. Microsoft Excel was used to organize the raw data on EDR experiments, and the SigmaPlot program was utilized to generate drug response curves. All drug response curves were as approximated as sigmoidal equations (characteristic for typical drug response curves) to fit the data. IC50 values were determined using the approximated sigmoidal curves and expressed as μM. Table 12 provides the PC-3 or MCF-7 IC50 data for each of the compounds tested.
Background: Incorporation of labelled thymidine or its analogues reports DNA synthesis.
Regarding `CCCC(=O)OCN(C)C(=O)COCCOC` [N-Methyl-2-(2-methoxyethoxy)acetamidomethyl Butyrate], the concentration for half-maximal inhibition (IC50) came out at 36 µM.
Regarding `CC(/C=C/C(=O)NO)=C\[C@@H](C)C(=O)c1ccc(N(C)C)cc1` [trichostatin, reference compound], the half-maximal inhibitory concentration (IC50) worked out at 0.005 µM.
On the same count and under the same terms, the result for `CCCC(=O)O` [butyric acid, reference compound] reads over 2000 µM; that for `CCCC(=O)OCOC(=S)C=Cc1ccccc1` [butyroyloxymethyl thiocinnamate, Butyroyloxymethyl Thiocinnamate], 30 µM; that for `CCCC(=O)N(C)COC(=O)C=Cc1ccccc1` [N-methylbutyramidomethyl cinnamate, N-Methylbutyramidomethyl Cinnamate], 100 µM.
On the same count and under the same terms, the result for `CCCC(=S)OCOC(=O)C=Cc1ccccc1` [cinnamoyloxymethyl thio-butyrate, Cinnamoyloxymethyl Thiobutyrate] reads 30 µM; that for `CCCC(=O)OCN(C)C(=O)C=Cc1ccccc1` [N-methylcinnamamidomethyl butyrate, N-Methylcinnamamidomethyl Butyrate], 20 µM; that for `CCCC(=O)CCOC(=O)C=Cc1ccccc1` [3-oxohexyl cinnamate, 3-Oxohexyl Cinnamate], 40 µM.
Still for that read-out and setting: the result for `CCCC(=O)SCSC(=O)CCC` reads 40 µM.

The next experiment relates to MCF-7 breast cancer cells. The experiment can be described thus: Anti-proliferation assay, MCF-7. The conditions noted are these: Homo sapiens, MCF7; value marked *: obtained from MCF-7 cell line; read-out: PC-3 or MCF-7* IC50. Format: cell-based. Here is the method: as §1
as §2, with “Microsoft Excel was used to organize the raw data on EDR experiments, and the SigmaPlot program was utilized to generate drug response curves. All drug response curves were as approximated as sigmoidal equations (characteristic for typical drug response curves) to fit the data.” left out, “Table 12 provides the PC-3 or MCF-7 IC50 data for each of the compounds tested.” left out
`CCC(=O)OCOC(=S)CC` [propionoyloxymethyl thiopropionate, Propionoyloxymethyl Thiopropionate]: the IC50 worked out at 50 µM.

Values taken from patent US6667341B2, “Delta dicarbonyl compounds and methods for using the same” (Beacon Laboratories, Inc., priority 2000, dated 2003).
